Assays:
[1] = target: T1, mouse SLC26A1 (Mus musculus, UniProt P58735, C691Y); assay: Radiolabelled anion uptake in Xenopus oocytes expressing mouse SLC26A1; format: cell-based
T1 construct: Full-length mouse SLC26A6b and SLC26A 1 cDNAs were cloned into the Xenopus expression vector pGEMHE; expressed in transfected cells; host or cells: Xenopus laevis oocytes injected with in vitro transcribed cRNA (pGEMHE)
T1 sequence (P58735 1-704 C691Y): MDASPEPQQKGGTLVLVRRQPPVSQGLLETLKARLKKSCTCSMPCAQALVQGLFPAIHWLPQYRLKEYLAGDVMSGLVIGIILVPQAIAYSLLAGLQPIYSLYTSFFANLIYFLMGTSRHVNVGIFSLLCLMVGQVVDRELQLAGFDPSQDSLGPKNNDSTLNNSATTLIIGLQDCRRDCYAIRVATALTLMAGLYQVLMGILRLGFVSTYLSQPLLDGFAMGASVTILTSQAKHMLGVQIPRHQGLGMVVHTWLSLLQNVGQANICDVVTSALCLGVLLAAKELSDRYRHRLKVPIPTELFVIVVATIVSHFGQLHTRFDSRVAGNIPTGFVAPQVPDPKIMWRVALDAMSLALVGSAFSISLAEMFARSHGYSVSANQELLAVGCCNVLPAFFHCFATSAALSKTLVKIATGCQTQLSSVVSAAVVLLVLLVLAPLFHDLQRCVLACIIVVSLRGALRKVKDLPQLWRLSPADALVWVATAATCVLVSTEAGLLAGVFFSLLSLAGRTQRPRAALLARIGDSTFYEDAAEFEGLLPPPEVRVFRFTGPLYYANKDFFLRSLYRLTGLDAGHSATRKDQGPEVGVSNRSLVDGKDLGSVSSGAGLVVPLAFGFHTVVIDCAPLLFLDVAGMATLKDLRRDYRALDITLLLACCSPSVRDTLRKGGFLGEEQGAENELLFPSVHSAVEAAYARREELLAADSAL
Experimental: Full-length mouse SLC26A6b and SLC26A 1 cDNAs were cloned into the Xenopus expression vector pGEMHE (Liman et al., 1992). The SLC26A6 and SLC26A1 expression constructs were linearized, and cRNA was transcribed in vitro using T7 RNA polymerase and a […] MMACHINE® transcription kit (Ambion, Inc. of Austin, Tex., United States of America). Defolliculated oocytes were injected with 25 nl to 50 nl of water or with a solution containing cRNA at a concentration of 0.5 μg/μl (12.5 ng to 25 ng per oocyte) using a Nanoliter-2000 injector (WPI Instruments of Sarasota, Fla., United States of America). Oocytes were incubated at 17° C. in 50% Leibovitz's L-15 media supplemented with penicillin/streptomycin (1000 units/ml) and glutamine for 2-3 days for uptake assays.
For sulphate uptake assays, oocytes were pre-incubated for 20 minutes in chloride-free uptake medium (100 mM NMDG gluconate, 2 mM potassium gluconate, 1 mM calcium gluconate, 1 mM magnesium gluconate, 10 mM HEPES-Tris, pH 6.0 or pH 7.5 as indicated), followed by a 60-minute period for uptake in the same medium supplemented with 1 mM K2^35SO4 (40 μCi/ml). The cells were then washed three times in uptake buffer with 5 mM cold K2SO4 to remove tracer activity in the extracellular fluid. The oocytes were dissolved individually in 10% SDS, and tracer activity was determined by scintillation counting. Uptake of chloride, formate, and oxalate was assayed using the same chloride-free uptake solutions, substituting 8.3 mM ^36Cl, 500 μM [^14C]oxalate, or 50 μM [^14C]formate for labeled sulphate.
For sulphate exchange and cis-inhibition experiments, the concentration of NMDG-gluconate in the uptake solution was adjusted to maintain isotonic osmolality, which was confirmed experimentally using a FISKE® osmometer (Fiske Associates, Inc. of Bethel, Conn., United States of America).

[2] = target: T2, human SLC26A3 (DRA) (Homo sapiens, UniProt P40879); assay: Cis-inhibition of 36Cl uptake in oocytes expressing human SLC26A3 (DRA); format: cell-based; conditions: 10 mM anion (FIG. 19)
T2 construct: expressed in transfected cells; host or cells: Xenopus laevis oocytes (SLC26A3-injected)
T2 sequence (P40879 1-764): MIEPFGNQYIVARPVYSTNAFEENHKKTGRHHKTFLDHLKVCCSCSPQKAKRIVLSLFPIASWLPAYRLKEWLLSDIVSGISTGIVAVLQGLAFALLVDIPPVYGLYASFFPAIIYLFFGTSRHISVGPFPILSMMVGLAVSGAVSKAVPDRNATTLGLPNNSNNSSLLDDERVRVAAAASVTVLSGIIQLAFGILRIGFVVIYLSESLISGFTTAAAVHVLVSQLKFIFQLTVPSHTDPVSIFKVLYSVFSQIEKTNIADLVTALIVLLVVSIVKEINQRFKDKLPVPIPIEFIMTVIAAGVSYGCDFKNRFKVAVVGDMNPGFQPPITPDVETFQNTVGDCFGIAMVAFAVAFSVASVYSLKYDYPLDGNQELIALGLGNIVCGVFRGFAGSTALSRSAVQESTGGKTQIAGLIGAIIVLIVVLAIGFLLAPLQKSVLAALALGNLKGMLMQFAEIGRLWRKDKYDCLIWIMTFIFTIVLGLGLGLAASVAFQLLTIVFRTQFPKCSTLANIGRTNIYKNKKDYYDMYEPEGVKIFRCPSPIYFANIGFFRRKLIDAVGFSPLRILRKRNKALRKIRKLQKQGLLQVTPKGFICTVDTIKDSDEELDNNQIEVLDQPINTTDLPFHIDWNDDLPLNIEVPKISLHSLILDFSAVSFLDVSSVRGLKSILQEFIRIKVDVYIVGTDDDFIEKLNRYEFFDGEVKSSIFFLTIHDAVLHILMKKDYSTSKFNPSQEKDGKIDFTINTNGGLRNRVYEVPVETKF
Excerpt: FIG. 19 depicts cis-inhibition of ^36Cl^− uptake by various anions in oocytes expressing human SLC26A3 (DRA).
The SLC26A6 exchanger is a likely mediator of intestinal oxalate absorption and thus a potential therapeutic target in calcium-oxalate stone disease. Intestinal expression of the SLC26A3 or DRA protein is also robust, in keeping with the genetic role of SLC26A3 in congenital chloride-losing diarrhea. Hoglund, P. et al., 1996. […] Scott, D. A., et al., 1999; Scott, D.A. & Karniski, L. P., 2000.

**Q.** For `O=C(O)C(=O)O` [oxalate], which “effect of extracellular anion on SO4 2− transport via SLC26A1” value ([1]; 25 mM of the anion (FIG. 9A, 6C)) is on record?
**A.** Its value is “strongly cis-inhibitory”.

**Q.** And the oxalate uptake ([1]; SLC26A1-injected oocytes (FIG. 8A))?
**A.** The oxalate uptake was 72±2 pmol/oocyte/h.

**Q.** What about the “oxalate transport inferred from cis-inhibition of Cl transport” value [2] of the same molecule?
**A.** Its value is “minimal if any”.

Source: patent US20060014940A1, “Cloning and characterization of slc26a6, slc26a1, and slc26a2 anion exchangers” (priority 2002, published 2006)
